Experimental data published in ChEMBL document CHEMBL1681767, “Design and synthesis of tricyclic tetrahydroquinolines as a new series of nonsteroidal selective androgen receptor modulators (SARMs)” (Bioorg Med Chem Lett, 2011).
Activity calls are given as the source filed them. No cut-off for these calls is given here.

Experiments:
[1] = test system: Rattus norvegicus; test: Recovery of […] weight in orchidectomized Sprague-Dawley rat at 3 mg/kg, sc relative to control; format: functional; conditions: route subcutaneous
[2] = Displacement of [3H]17-beta-estradiol from rabbit ER by liquid scintillation counting; parameters: species or system Oryctolagus cuniculus
[3] = target: T1, Progesterone receptor (Oryctolagus cuniculus, UniProt P06186); test: Displacement of [3H]progesterone from rabbit PR by liquid scintillation counting
T1 sequence (P06186 whole entry): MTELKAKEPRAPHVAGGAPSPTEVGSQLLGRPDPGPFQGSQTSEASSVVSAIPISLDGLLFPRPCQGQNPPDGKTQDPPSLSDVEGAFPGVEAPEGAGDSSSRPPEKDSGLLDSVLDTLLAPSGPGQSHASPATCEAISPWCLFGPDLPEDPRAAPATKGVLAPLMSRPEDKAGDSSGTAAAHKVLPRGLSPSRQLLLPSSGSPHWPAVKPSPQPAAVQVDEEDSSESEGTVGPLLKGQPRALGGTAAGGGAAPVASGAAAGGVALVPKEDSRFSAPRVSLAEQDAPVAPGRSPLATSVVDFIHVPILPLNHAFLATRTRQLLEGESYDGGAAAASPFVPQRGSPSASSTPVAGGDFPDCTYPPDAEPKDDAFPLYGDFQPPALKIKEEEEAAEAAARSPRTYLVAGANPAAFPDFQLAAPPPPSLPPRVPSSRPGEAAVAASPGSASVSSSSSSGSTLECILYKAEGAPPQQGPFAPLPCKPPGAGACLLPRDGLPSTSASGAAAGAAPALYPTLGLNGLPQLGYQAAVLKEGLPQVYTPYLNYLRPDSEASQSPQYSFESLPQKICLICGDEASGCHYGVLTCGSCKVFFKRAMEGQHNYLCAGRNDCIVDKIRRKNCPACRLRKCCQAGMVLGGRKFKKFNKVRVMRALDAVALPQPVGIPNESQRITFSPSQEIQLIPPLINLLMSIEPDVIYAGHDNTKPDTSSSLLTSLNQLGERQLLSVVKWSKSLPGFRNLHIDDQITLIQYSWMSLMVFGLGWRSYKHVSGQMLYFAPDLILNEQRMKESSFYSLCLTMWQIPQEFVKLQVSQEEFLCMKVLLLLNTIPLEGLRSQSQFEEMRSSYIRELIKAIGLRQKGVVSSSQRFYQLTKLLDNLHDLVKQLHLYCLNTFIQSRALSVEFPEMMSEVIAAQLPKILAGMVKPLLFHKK

[4] = test system: Rattus norvegicus; test: Recovery of levator ani muscle weight in orchidectomized Sprague-Dawley rat at 3 mg/kg, sc; format: functional, organism-based; parameters: dose 3 mg/kg
[5] = target: T2, Mineralocorticoid receptor (Rattus norvegicus, UniProt P22199); test: Displacement of [3H]aldosterone from Sprague-Dawley rat MR by liquid scintillation counting
T2 sequence (P22199 whole entry): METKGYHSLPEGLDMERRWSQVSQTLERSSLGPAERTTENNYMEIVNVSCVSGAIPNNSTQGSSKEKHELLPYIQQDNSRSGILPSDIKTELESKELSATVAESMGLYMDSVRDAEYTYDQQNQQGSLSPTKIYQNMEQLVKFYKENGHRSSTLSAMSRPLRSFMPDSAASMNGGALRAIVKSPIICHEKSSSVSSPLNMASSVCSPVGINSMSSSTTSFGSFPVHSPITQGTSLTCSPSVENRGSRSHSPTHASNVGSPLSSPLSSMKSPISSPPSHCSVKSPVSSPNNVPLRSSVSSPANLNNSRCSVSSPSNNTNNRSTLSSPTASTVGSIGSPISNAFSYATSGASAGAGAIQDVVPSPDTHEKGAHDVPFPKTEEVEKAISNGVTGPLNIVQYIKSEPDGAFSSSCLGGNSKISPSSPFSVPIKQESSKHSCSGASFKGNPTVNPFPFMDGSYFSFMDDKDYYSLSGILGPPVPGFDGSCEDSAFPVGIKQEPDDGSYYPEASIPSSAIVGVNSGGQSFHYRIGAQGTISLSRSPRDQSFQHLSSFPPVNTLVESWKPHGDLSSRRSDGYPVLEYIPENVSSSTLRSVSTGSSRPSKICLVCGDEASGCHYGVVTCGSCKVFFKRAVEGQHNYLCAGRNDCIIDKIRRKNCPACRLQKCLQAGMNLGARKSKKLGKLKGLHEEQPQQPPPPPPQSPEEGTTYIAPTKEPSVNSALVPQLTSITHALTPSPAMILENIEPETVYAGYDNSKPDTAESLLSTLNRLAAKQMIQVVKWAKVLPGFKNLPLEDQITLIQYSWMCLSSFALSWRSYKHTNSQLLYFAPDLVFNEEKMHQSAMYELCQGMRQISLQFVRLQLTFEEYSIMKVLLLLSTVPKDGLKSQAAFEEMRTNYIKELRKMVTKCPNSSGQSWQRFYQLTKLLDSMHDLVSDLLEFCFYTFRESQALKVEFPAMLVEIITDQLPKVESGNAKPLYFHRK

[6] = target: T3, Glucocorticoid receptor (Rattus norvegicus, UniProt P06536); test: Displacement of [3H]dexamethasone from Sprague-Dawley rat GR by liquid scintillation counting
T3 sequence (P06536 whole entry): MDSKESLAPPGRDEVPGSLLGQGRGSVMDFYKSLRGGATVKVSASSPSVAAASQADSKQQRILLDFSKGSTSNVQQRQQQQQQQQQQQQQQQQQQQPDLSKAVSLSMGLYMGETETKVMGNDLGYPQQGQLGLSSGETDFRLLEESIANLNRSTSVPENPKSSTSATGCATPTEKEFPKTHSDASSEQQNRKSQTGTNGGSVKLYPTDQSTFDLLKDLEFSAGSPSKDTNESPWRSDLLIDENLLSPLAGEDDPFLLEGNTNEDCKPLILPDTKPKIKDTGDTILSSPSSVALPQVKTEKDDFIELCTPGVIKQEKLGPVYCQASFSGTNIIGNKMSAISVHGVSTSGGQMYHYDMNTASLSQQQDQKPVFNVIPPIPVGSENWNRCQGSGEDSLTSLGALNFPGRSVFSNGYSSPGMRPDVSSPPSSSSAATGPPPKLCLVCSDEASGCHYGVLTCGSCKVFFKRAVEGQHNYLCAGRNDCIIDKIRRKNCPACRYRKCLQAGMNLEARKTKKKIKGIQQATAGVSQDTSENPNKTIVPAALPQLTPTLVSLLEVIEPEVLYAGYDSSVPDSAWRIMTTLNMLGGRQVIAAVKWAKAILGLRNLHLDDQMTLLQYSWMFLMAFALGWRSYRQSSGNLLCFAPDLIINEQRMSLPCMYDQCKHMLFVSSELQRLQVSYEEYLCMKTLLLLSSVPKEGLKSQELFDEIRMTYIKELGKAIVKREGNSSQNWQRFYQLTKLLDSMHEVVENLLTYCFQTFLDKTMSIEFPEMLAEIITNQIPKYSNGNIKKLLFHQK

SMILES: CC(C)(CO)[C@H]1Nc2ccc([N+](=O)[O-])cc2[C@H]2C=CC[C@H]21
- Activity [1]: 50%
- IC50 [2]: > 1000 µM
- IC50 [3]: 0.13 µM
- Activity [4]: Active
- IC50 [5]: 6.3 µM
- IC50 [6]: 18 µM
